# Assay results: publication PMC6123649, “Structural basis for specific inhibition of the highly sensitive ShHTL7 receptor” (EMBO Reports, 2018)
# Experiments:
# AtD14 = molecular target: T1, AtD14 (Arabidopsis thaliana, UniProt Q9SQR3); assay: YLG hydrolysis assay; type: biochemical
# T1 construct: made in house; host or cells: E. coli BL21 (DE3)
# T1 sequence (Q9SQR3 1-267): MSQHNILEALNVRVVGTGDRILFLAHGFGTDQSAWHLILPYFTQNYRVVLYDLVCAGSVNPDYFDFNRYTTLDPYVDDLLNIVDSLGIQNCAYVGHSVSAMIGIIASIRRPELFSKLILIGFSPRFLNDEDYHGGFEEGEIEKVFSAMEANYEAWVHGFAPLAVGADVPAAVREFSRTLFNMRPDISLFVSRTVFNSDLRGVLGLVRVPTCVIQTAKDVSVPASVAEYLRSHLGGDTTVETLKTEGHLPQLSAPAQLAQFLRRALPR
# Procedure: In vitro YLG hydrolysis assays were performed using 3 μM of ShHTL7, ShHTL7‐L143Y, AtD14, and OsD14 in a reaction buffer (1× PBS) with 0.1% dimethyl sulfoxide (DMSO) in a 100 μl volume on a 96‐well black plate (Greiner). The fluorescent intensity was measured by SpectraMax i3 (Molecular Devices) using an excitation wavelength of 480 nm and a detection wavelength of 520 nm. ShHTL7, ShHTL7‐L143Y, AtD14, and OsD14 were mixed with Triton X‐100, using serial dilutions to cover the Triton X‐100 concentration range from 5 μM until 4.87 nM. Protein‐Triton mixes were pre‐incubated for 30 min. 1 μM YLG (Tokyo Chemical Industry Co. Ltd.) was then added, and the assay was incubated for 60 min. The change in fluorescence observed over the course of 1 h incubation of YLG in buffer without protein was subtracted from the data collected in the presence of protein. The resulting relative fluorescence values were analyzed. The inhibitory curves and IC50 values were plotted using GraphPad (Prism 6) four‐parameter logistic curve. The rate of YLG hydrolysis by ShHTL7 was recorded following the above method at 10‐min interval for 2 h.
# [1] = test system: GR24‐dependent interaction of ShHTL7 with ShMAX2; assay: GST pulldown of ShMAX2; type: biochemical, Striga hermonthica; conditions: pre‐incubation of ShHTL7 with Triton; 20 μM GR24
# Procedure: (§1) Purified GST‐ShHTL7 wt, ShHTL7 L143Y, and ShHTL7‐H246N mutants were bound to the Glutathione Sepharose 4B Beads, where Triton is used in the lysis step and in certain samples Tween‐20 was used instead of Triton. Bound proteins were incubated with 20 μM GR24 and His6‐ShMAX2 lysate for 2 h and then washed with lysis buffer for three times and then ShHTL7 wt and mutants were eluted with the addition of 20 mM reduced glutathione. Thus, eluted protein was subjected to Western blot using antibody specific to 6XHis (anti‐His).
# [2] = test system: ShHTL7 L143Y binding to ShMAX2; assay: GST pulldown of ShMAX2; type: biochemical, Striga hermonthica
# Procedure: as §1
# ShHTL7 = molecular target: T2, ShHTL7 (Striga hermonthica, UniProt A0A0M3PNA2); assay: Microscale thermophoresis (MST); type: binding; conditions: 2.5 h pre‐incubation; 0.005% Tween‐20; read-out: dissociation constant (Kd), MST
# T2 sequence (A0A0M3PNA2 1-271): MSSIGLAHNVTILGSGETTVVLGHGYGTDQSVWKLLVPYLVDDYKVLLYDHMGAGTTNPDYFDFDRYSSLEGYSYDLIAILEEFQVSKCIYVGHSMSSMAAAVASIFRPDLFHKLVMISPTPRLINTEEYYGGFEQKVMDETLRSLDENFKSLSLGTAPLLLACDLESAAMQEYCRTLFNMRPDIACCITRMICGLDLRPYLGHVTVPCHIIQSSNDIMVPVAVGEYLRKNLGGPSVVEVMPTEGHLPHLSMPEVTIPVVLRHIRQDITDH
# Procedure: ShHTL7 was N‐terminally labeled with RED dye (NT‐647) following the protocol from manufacturer (NanoTemper, Germany). Free dye was removed by passing through the Sephadex G‐25 column. Serial dilutions of unlabeled Triton X‐100, GR24, and PAA ranging from 25 μM to sub‐nanomolar range were mixed with 20 nM of NT‐647‐labeled ShHTL7 in buffer (50 mM Tris–HCl, 150 mM NaCl, 0.005% Tween‐20) and incubated for 2.5 h in the studies for Triton X‐100 and PAA except with GR24, and it was recorded after 10‐min incubation. About 10 μl of sample was loaded into premium monolith NT capillaries, and assays were carried out in a NanoTemper Monolith NT.015T. The red fluorescence was excited by a light‐emitting diode, and its emission was recorded on the focused part of capillaries. Using laser diode, a microscopic temperature gradient was created at the same location and the fluorescence depletion was measured. K d values were determined by plotting the concentrations of unlabeled ligands against the changes in fluorescent thermophoresis signal, and the data were analyzed using the NanoTemper analysis software.
# [3] = test system: rice seeds cv. Nipponbare; assay: Rice seed germination assay and growth of seedlings; type: in vivo; conditions: 15 μM of Triton
# Procedure: The rice seeds cv. Nipponbare were surface‐sterilized using 50 ml (2.5%) sodium hypochlorite with 0.4% of Tween‐20 for 15 min. After six subsequent washing steps with sterilized water, the rice seeds were kept in water at 30°C for overnight imbibition. About 2 ml of Triton X‐100 concentrations ranging from 1 to 100 μM and sterile MilliQ water (control) was added in 24‐well plates with six replications. One sterilized rice seed was put in each well and allowed to germinate for 48 h at 30°C. The germinated (radicle emergence) and non‐germinated seeds were recorded, and germination percentage was calculated. Then, same seeds were allowed to grow under light in growth cabinet for another 1 week. The length of […] seedlings was measured with roller and averaged.
# Orobanche cumana = test system: Orobanche cumana; parameters: method as in PMID 23915294; conditions: concentrations above 0.001%; cited from earlier work
# ShHTL7 L143Y mutant = assay: Intrinsic Triton fluorescence binding assay; parameters: species or system Striga hermonthica
# Procedure: Triton X‐100 has an excitation and emission wavelength of 275 and 302 nm, respectively. ShHTL7, ShHTL7‐L143Y, AtD14, and OsD14 were incubated in 50 mM Tris–HCl pH 7.5, 150 mM NaCl, with or without 0.005% Tween‐20, at concentrations ranging from 10 μM to 1 nM (obtained using serial dilutions) with 154 nM of Triton X‐100 for 1–2 h, and fluorescence values were then measured by SpectraMax i3 (Molecular Devices) at excitation and detection wavelengths of 275 and 302 nm, respectively. […] Data were normalized to the background fluorescence from the protein to obtain the change in Triton X‐100 fluorescence intensity. To determine the K d, the changes in Triton X‐100 fluorescence intensity were plotted against the concentration of the protein using the single binding site model implemented in GraphPad (Prism 6).
substance,measurement,setting,value
Triton X-100,decrease of YLG hydrolysis rate,AtD14; 5 μM Triton,10%
same,effect on YLG hydrolysis activity,AtD14; Triton up to 0.5 μM,did not impact
same,effect on GR24‐dependent interaction of ShHTL7 with ShMAX2,[1],inhibited
same,inhibition of ShMAX2 binding of ShHTL7 L143Y,[2],did not inhibit
same,Kd,ShHTL7,0.44 ± 0.05 µM
same,effect on rice seed germination,[3],did neither inhibit
same,effect on rice seedling growth,[3],nor affected seedling growth
same,effect on seed germination,Orobanche cumana,hindered seed germination
same,binding to ShHTL7 L143Y mutant in vitro,ShHTL7 L143Y mutant,failed to bind
